From publication PMC5853643, “Bombesin receptor subtype‐3‐expressing neurons regulate energy homeostasis through a novel neuronal pathway in the hypothalamus” (Brain and Behavior, 2017)

Biological target: T1, Bombesin receptor subtype‐3 (BRS‐3) (Rattus norvegicus, UniProt Q8K418)
T1 construct: gene Brs3
T1 sequence (Q8K418 1-399): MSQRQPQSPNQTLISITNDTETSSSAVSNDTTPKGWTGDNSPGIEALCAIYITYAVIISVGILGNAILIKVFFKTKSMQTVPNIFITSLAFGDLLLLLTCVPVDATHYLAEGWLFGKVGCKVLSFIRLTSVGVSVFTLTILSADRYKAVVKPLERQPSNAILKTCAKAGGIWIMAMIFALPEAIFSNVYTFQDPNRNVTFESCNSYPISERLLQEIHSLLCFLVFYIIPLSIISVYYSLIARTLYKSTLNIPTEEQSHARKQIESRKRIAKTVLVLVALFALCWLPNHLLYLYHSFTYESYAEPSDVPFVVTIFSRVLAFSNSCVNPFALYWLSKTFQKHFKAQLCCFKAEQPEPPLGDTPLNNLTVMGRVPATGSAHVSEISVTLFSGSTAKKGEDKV
Test: agonist-induced Ca2+ mobilization, aequorin bioluminescence assay in CHO-K1 cells overexpressing BRS-3
Format: cell-based

Compound | EC50
COc1ccc2c(c1)C(=O)N(Cc1ccccc1)C(C(=O)NC(C)(C)C)c1ccccc1-2 (racemic) [compound-C, compound‐C] | 130 nM
COc1ccc2c(c1)C(=O)N(Cc1ccccc1)C(C(=O)NC(C)(C)C)c1ccccc1-2 (racemic) [compound-A, 6‐benzyl‐N‐tert‐butyl‐9‐methoxy‐7‐oxo‐6,7‐dihydro‐5H‐dibenzo[c,e]azepine‐5‐carboxamide] | 100 nM
